Experimental data published in ChEMBL document CHEMBL1133872, “Modelling studies of the active site of human sorbitol dehydrogenase: an approach to structure-based inhibitor design of the enzyme” (Bioorg Med Chem Lett, 2001).

Target: T1, Sorbitol dehydrogenase (Homo sapiens, UniProt Q00796)
T1 sequence (Q00796 whole entry): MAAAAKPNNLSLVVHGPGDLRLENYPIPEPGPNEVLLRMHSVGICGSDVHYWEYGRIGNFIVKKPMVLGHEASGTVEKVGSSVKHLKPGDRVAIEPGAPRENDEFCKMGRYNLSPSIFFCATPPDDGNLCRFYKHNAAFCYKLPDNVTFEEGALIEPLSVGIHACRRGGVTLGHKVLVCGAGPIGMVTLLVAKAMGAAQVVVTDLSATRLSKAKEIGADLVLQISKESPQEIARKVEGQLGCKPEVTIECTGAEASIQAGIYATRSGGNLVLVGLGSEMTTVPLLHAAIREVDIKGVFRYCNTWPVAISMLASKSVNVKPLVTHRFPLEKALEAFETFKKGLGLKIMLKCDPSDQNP
Assay: Concentration required for inhibitory activity against human sorbitol dehydrogenase (SDH)

IC50: 1 µM
SMILES: CN(C)S(=O)(=O)N1CCN(c2ccnc(CO)n2)CC1
